Measured values published in patent US10738028B2, “Spiro three-membered ring, spiro five-membered ring peptide deformylase inhibitor and use thereof in antibacteria and anti-tumor” (priority 2016, dated 2020).

Columns and labels:
Format in all cases: cell-based
[1] = system: Moraxella catarrhalis (BCA); assay: MIC, two-fold agar dilution (CLSI), clinical isolates
Summary of the method: (§1)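 Following the American Clinical and Laboratory Standards Institute procedure, agar two-fold dilution served to determine minimum inhibitory concentrations.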

[2] = system: methicillin-sensitive Staphylococcus aureus (MSSA); assay: as above
Summary of the method: as §1

[3] = system: Escherichia coli (including ESBLs, non-ESBLs); assay: as above
Summary of the method: as §1

[4] = system: methicillin-sensitive Staphylococcus epidermidis (MSSE); assay: as above
Summary of the method: as §1

[5] = system: methicillin-resistant Staphylococcus epidermidis (MRSE); assay: as above
Summary of the method: as §1

[6] = system: methicillin-resistant Staphylococcus aureus (MRSA); assay: as above
Summary of the method: as §1

[7] = system: Streptococcus pneoumoniae (SPN); assay: as above
Summary of the method: as §1

[8] = system: Enterococcus faecium (EFM); assay: as above
Summary of the method: as §1

[9] = system: Enterococcus faecalis (EFA); assay: as above
Summary of the method: as §1

[10] = system: HCT-116 colorectal cancer cell line; assay: CCK-8 proliferation inhibition; conditions: concentration of 30 μM; 72 hours; CCK-8; 30 µM
Summary of the method: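 2000 cells/well, McCoy's 5A + 10% newborn bovine serum; overnight attach, 37° C./5% CO2. Cpd from DMSO stock diluted in medium, 72 h. Readout: CCK-8 (1:10). Ctrl 1‰ DMSO.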

[11] = system: BEL-7402 liver cancer cell line; assay: CCK-8 proliferation inhibition; conditions: concentration of 30 μM, 72 hours, 30 µM
Summary of the method: (§2)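 Plating at 2000 cells/well, then incubation overnight at 37° C. Next, a range of compound concentrations for 72 hours (control 1‰ DMSO). Finally, medium decanted and CCK-8 diluted 1:10 added.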

[12] = system: MGC-803 gastric cancer cell line; assay: CCK-8 proliferation inhibition; conditions: concentration of 30 μM
Summary of the method: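 CCK-8 read-out after 72 h drug exposure; 2000 cells/well, overnight pre-culture (37° C, 5% CO2); vehicle 1‰ DMSO. Media: PC3 F12; MGC-803/Jurkat 1640; MCF-7 DMEM high glucose; all +10% newborn bovine serum, 1% antibiotics.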

[13] = system: A549 lung cancer cell line; assay: CCK-8 proliferation inhibition; conditions: concentration of 30 μM
Summary of the method: as §2

Work on `O=C(C[C@@H](CC1CCCC1)C(=O)N1CC2(CC2)C[C@H]1C(=O)Nc1cnccn1)NO` [Example 62] yielded an Anti-bacterial activity (MIC), strain BCA 14-1 ([1]; clinical isolate BCA 14-1) of 2 µg/mL, an Anti-bacterial activity (MIC), strain BCA 14-4 ([1]; clinical isolate BCA 14-4) of 2 µg/mL and an Anti-bacterial activity (MIC), strain BCA 14-5 ([1]; clinical isolate BCA 14-5) of 0.5 µg/mL. It also gave an Anti-bacterial activity (MIC), strain BCA 14-6 ([1]; clinical isolate BCA 14-6) of 2 µg/mL, an Anti-bacterial activity (MIC), strain BCA 14-7 ([1]; clinical isolate BCA 14-7) of 2 µg/mL and an Anti-bacterial activity (MIC), strain BCA 14-8 ([1]; clinical isolate BCA 14-8) of 2 µg/mL. It also gave an Anti-bacterial activity (MIC), strain BCA 14-10 ([1]; clinical isolate BCA 14-10) of 1 µg/mL, an Anti-bacterial activity (MIC), strain MSSA 15-3 ([2]; clinical isolate MSSA 15-3) of 0.5 µg/mL and an Anti-bacterial activity (MIC), strain MSSA 15-4 ([2]; clinical isolate MSSA 15-4) of 0.5 µg/mL. It also gave an Anti-bacterial activity (MIC), strain MSSA 15-5 ([2]; clinical isolate MSSA 15-5) of 16 µg/mL, an Anti-bacterial activity (MIC), strain MSSA 15-6 ([2]; clinical isolate MSSA 15-6) of 16 µg/mL and an Anti-bacterial activity (MIC), strain ECO+ 15-1 ([3]; clinical isolate ECO+ 15-1) of 0.5 µg/mL. It also gave an Anti-bacterial activity (MIC), strain ECO+ 15-2 ([3]; clinical isolate ECO+ 15-2) of 0.5 µg/mL, an Anti-bacterial activity (MIC), strain ECO+ 15-3 ([3]; clinical isolate ECO+ 15-3) of 0.5 µg/mL and an Anti-bacterial activity (MIC), strain ECO+ 15-4 ([3]; clinical isolate ECO+ 15-4) of 0.5 µg/mL. It also gave an Anti-bacterial activity (MIC), strain ECO− 15-1 ([3]; clinical isolate ECO− 15-1) of 16 µg/mL, an Anti-bacterial activity (MIC), strain ECO− 15-2 ([3]; clinical isolate ECO− 15-2) of 16 µg/mL and an Anti-bacterial activity (MIC), strain ECO− 15-3 ([3]; clinical isolate ECO− 15-3) of 16 µg/mL. The Anti-bacterial activity (MIC), strain ECO− 15-4 ([3]; clinical isolate ECO− 15-4) was 16 µg/mL, the Anti-bacterial activity (MIC), strain MSSE 15-3 ([4]; clinical isolate MSSE 15-3) was 0.5 µg/mL and the Anti-bacterial activity (MIC), strain MSSE 15-4 ([4]; clinical isolate MSSE 15-4) was 0.5 µg/mL. The Anti-bacterial activity (MIC), strain MSSE 15-5 ([4]; clinical isolate MSSE 15-5) was 0.5 µg/mL, the Anti-bacterial activity (MIC), strain MSSE 15-6 ([4]; clinical isolate MSSE 15-6) was 0.5 µg/mL and the Anti-bacterial activity (MIC), strain MRSE 15-1 ([5]; clinical isolate MRSE 15-1) was 16 µg/mL. The Anti-bacterial activity (MIC), strain MRSE 15-2 ([5]; clinical isolate MRSE 15-2) was 16 µg/mL, the Anti-bacterial activity (MIC), strain MRSE 15-3 ([5]; clinical isolate MRSE 15-3) was 0.5 µg/mL and the Anti-bacterial activity (MIC), strain MRSE 15-7 ([5]; clinical isolate MRSE 15-7) was 0.5 µg/mL. It also gave an Anti-bacterial activity (MIC), strain MRSA 15-1 ([6]; clinical isolate MRSA 15-1) of 0.125 µg/mL, an Anti-bacterial activity (MIC), strain MRSA 15-2 ([6]; clinical isolate MRSA 15-2) of 0.5 µg/mL and an Anti-bacterial activity (MIC), strain MRSA 15-3 ([6]; clinical isolate MRSA 15-3) of 0.5 µg/mL. The Anti-bacterial activity (MIC), strain MRSA 15-4 ([6]; clinical isolate MRSA 15-4) was 0.5 µg/mL, the Anti-bacterial activity (MIC), strain SPN 16-2 ([7]; clinical isolate SPN 16-2) was 0.25 µg/mL and the Anti-bacterial activity (MIC), strain SPN 16-4 ([7]; clinical isolate SPN 16-4) was 0.5 µg/mL. The Anti-bacterial activity (MIC), strain EFM 15-1 ([8]; clinical isolate EFM 15-1) was greater than 32 µg/mL, the Anti-bacterial activity (MIC), strain EFM 15-2 ([8]; clinical isolate EFM 15-2) was greater than 32 µg/mL and the Anti-bacterial activity (MIC), strain EFM 15-3 ([8]; clinical isolate EFM 15-3) was greater than 32 µg/mL. The Anti-bacterial activity (MIC), strain EFM 15-4 ([8]; clinical isolate EFM 15-4) was greater than 32 µg/mL, the Anti-bacterial activity (MIC), strain EFM 15-5 ([8]; clinical isolate EFM 15-5) was 0.5 µg/mL and the Anti-bacterial activity (MIC), strain EFM 15-6 ([8]; clinical isolate EFM 15-6) was 0.5 µg/mL. It also gave an Anti-bacterial activity (MIC), strain EFA 15-1 ([9]; clinical isolate EFA 15-1) greater than 32 µg/mL, an Anti-bacterial activity (MIC), strain EFA 15-2 ([9]; clinical isolate EFA 15-2) greater than 32 µg/mL and an Anti-bacterial activity (MIC), strain EFA 15-3 ([9]; clinical isolate EFA 15-3) greater than 32 µg/mL. For the same compound, the Anti-bacterial activity (MIC), strain EFA 15-4 ([9]; clinical isolate EFA 15-4) was greater than 32 µg/mL, the Anti-bacterial activity (MIC), strain EFA 15-5 ([9]; clinical isolate EFA 15-5) was greater than 32 µg/mL and the Anti-bacterial activity (MIC), strain EFA 15-6 ([9]; clinical isolate EFA 15-6) was greater than 32 µg/mL. The Anti-bacterial activity (MIC), strain EFA 15-9 ([9]; clinical isolate EFA 15-9) was 8 µg/mL, the HCT116 inhibition rate/% [10] was 79% and the “Inhibition of proliferation, Liver cancer BEL-7402” value [11] was 75%. For the same compound, the inhibition at 30 µM ([12]; Homo sapiens, MGC-803, 72 h) was greater than 50%, the “Inhibition of proliferation, Gastric cancer MGC-803” value ([12]; 72 hours, 30 µM) was 64% and the inhibition at 30 µM ([13]; Homo sapiens, A549, 72 h) was greater than 50%. For the same compound, the “Inhibition of proliferation, Lung cancer A549” value ([13]; 72 hours, 30 µM) was 59%.
